Experimental findings from ChEMBL document CHEMBL4130350, “Discovery, mechanism and metabolism studies of 2,3-difluorophenyl-linker-containing PARP1 inhibitors with enhanced in vivo efficacy for cancer therapy” (Eur J Med Chem, 2017) are described below.

The target of data set [1] is Poly [ADP-ribose] polymerase 1 (Homo sapiens, UniProt P09874). Nature of the data set: Inhibition of PARP1 (unknown origin) by ELISA.
Data set [2] is described as follows: Drug level in mouse liver microsomes treated with 2-(4-(2,3-Difluoro-5-((4-oxo-3,4-dihydrophthalazin-1-yl)methyl)benzoyl)pipe-razin-1-yl)nicotinonitrile at 2 uM up to 60 mins by LC-MS/MS analysis. The note with it: 1 h. In kind it is ADME, microsome.
Data set [3] is described as follows: Retention time in mouse liver microsomes at 2 uM up to 60 mins in presence of NADPH by LC-MS/MS analysis. The class given is ADME, microsome. The note with it: 1 h.
Data set [4] can be described thus: Cytotoxicity against BRCA2 deficient Chinese hamster VC8 cells after 3 days by CCK8 or SRB assay. The note with it: Cricetulus griseus, V-C8, 72 h. In kind it is functional, cell-based.
In another data set the test system is MDA-MB-436. Nature of the data set: Antiproliferative activity against human MDA-MB-436 cells after 7 days by CCK8 or SRB assay. In kind it is functional, cell-based. The note with it: MDA-MB-436, 168 h.
The subject of another data set is V79. Nature of the data set: Cytotoxicity against BRCA2 expressing Chinese hamster V79 cells after 3 days by CCK8 or SRB assay. In kind it is cell-based. The note with it: Cricetulus griseus, V79, 72 h.
The nature of data set [5]: Solubility of the compound in water after 24 hrs by HPLC analysis. In kind it is physicochemical.

Chain of Poly [ADP-ribose] polymerase 1 (P09874 whole entry): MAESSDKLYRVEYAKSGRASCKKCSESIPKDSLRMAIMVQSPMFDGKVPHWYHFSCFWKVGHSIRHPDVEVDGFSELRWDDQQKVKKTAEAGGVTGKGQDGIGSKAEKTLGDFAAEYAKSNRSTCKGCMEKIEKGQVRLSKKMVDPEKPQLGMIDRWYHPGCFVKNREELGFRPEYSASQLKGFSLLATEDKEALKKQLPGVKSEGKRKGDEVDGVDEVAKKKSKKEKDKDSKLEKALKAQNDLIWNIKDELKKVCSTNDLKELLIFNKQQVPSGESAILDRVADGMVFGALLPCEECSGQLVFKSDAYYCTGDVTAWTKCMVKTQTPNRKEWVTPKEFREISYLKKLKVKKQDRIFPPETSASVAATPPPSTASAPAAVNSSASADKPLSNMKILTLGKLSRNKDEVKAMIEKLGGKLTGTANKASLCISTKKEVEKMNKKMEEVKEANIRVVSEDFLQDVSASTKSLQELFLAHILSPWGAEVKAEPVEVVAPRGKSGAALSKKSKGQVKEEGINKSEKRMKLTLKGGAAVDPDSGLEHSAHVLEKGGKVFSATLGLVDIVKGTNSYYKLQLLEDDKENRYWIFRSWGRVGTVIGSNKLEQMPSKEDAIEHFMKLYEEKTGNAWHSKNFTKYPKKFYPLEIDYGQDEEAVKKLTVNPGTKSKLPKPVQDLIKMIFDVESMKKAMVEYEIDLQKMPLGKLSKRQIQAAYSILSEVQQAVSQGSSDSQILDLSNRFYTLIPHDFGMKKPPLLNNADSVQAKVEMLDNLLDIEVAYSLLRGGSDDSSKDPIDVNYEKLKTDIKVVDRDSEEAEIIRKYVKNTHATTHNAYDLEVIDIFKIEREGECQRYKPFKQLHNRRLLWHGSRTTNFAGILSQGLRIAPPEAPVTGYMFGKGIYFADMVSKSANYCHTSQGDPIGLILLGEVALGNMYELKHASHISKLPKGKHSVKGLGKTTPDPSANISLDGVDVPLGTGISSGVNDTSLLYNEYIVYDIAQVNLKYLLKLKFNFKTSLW

On to `O=C(c1cc(Cc2n[nH]c(=O)c3ccccc23)cc(F)c1F)N1CCN(Cc2ccccc2)CC1`, for which it took 96.8 nM to reach half-maximal inhibition in data set [1] (IC50).

Turning to `COc1ccccc1N1CCN(C(=O)c2cc(Cc3n[nH]c(=O)c4ccccc34)cc(F)c2F)CC1`, the midpoint of inhibition in data set [1], the IC50, lay at 297 nM.

For `N#Cc1cccc(N2CCN(C(=O)c3cc(Cc4n[nH]c(=O)c5ccccc45)cc(F)c3F)CC2)n1`, it took 5.1 nM to reach half-maximal inhibition in data set [1] (IC50).

On to `N#Cc1cccnc1NCCN(CC(=O)O)C(=O)c1cc(Cc2n[nH]c(=O)c3ccccc23)cc(F)c1F`, for which the Drug uptake entry in data set [2] is listed as “Active”. In addition, in data set [3], the Retention_time worked out at 6.7 min.

In data set [1], `O=C(c1cc(Cc2n[nH]c(=O)c3ccccc23)cc(F)c1F)N1CCN(c2ncccn2)CC1` registered an IC50 of 2.9 nM.

Regarding `O=C(c1cc(Cc2n[nH]c(=O)c3ccccc23)cc(F)c1F)N1CCN(c2cccc(Cl)c2)CC1`, the IC50 was 1600 nM in data set [4], 396 nM in the data set with MDA-MB-436, 4.2 nM in data set [1] and 7.88 µM in the data set on V79.

Consider `O=C(c1cc(Cc2n[nH]c(=O)c3ccccc23)cc(F)c1F)N1CCN(Cc2cccnc2)CC1`, for which half-maximal inhibition in data set [1] (IC50) required 157 nM.

`COc1ccc(N2CCN(C(=O)c3cc(Cc4n[nH]c(=O)c5ccccc45)cc(F)c3F)CC2)cc1`: in data set [1], half-maximal inhibition (IC50) required 112 nM.

In the case of `O=C(c1cc(Cc2n[nH]c(=O)c3ccccc23)cc(F)c1F)N1CCN(c2ccc(F)cc2)CC1`, the IC50 in data set [4] was 90.1 nM; in the data set with MDA-MB-436 it was 10.8 nM; in data set [1] it was 0.4 nM; in the data set on V79, 2.85 µM.

Turning to `N#Cc1cccnc1NCCN(CCO)C(=O)c1cc(Cc2n[nH]c(=O)c3ccccc23)cc(F)c1F`, the Drug uptake result in data set [2] is “Active”. Further, the Retention_time in data set [3] is 6.2 min.

For `O=C(c1cc(Cc2n[nH]c(=O)c3ccccc23)cc(F)c1F)N1CCN(c2ncc(C(F)(F)F)cn2)CC1`, 70.5 nM corresponded to half-maximal inhibition in data set [1] (IC50).

`CC(=O)N1CCN(C(=O)c2cc(Cc3n[nH]c(=O)c4ccccc34)cc(F)c2F)CC1` came in with an IC50 in data set [1] of 7.1 nM.

Turning to `O=C(c1cc(Cc2n[nH]c(=O)c3ccccc23)cc(F)c1F)N1CCN(CC2CC2)CC1`, half-maximal inhibition in data set [1] (IC50) was put at 9.7 nM.

On to `O=C(c1ccccc1)N1CCN(C(=O)c2cc(Cc3n[nH]c(=O)c4ccccc34)cc(F)c2F)CC1`, for which the IC50 in data set [1] stood at 6.1 nM.

In turn, `O=C(c1cc(Cc2n[nH]c(=O)c3ccccc23)cc(F)c1F)N1CCN(c2ccc(Br)cc2)CC1` returned an IC50 in data set [1] of 83.4 nM.

Consider `O=C(c1cc(Cc2n[nH]c(=O)c3ccccc23)cc(F)c1F)N1CCN(c2nsc3ccccc23)CC1`, for which, in data set [1], the IC50 was 52.2 nM.

Consider `O=C(c1cc(Cc2n[nH]c(=O)c3ccccc23)cc(F)c1F)N1CCN(C(=O)C2CCCO2)CC1` (stereo not drawn), for which the IC50 in data set [4] was 68.1 nM; in the data set with MDA-MB-436 it was 4.9 nM; in data set [1], 2.4 nM; in the data set on V79, more than 10 µM.

`O=C(c1cc(Cc2n[nH]c(=O)c3ccccc23)cc(F)c1F)N1CCN(c2nccc(Br)n2)CC1` showed an IC50 in data set [1] of 110 nM.

Turning to `O=C(c1cc(Cc2n[nH]c(=O)c3ccccc23)cc(F)c1F)N1CCN(c2ccccc2F)CC1`, 55.8 nM corresponded to half-maximal inhibition in data set [1] (IC50).

For the compound `CCN1CCN(C(=O)c2cc(Cc3n[nH]c(=O)c4ccccc34)cc(F)c2F)CC1`, the IC50 in data set [4] is 987 nM; in the data set with MDA-MB-436, 12.9 nM; in data set [1], 1.4 nM; in the data set on V79 it was more than 10 µM.

In the case of `O=C(c1cc(Cc2n[nH]c(=O)c3ccccc23)cc(F)c1F)N1CCN(c2nccs2)CC1`, the IC50 was 137 nM in data set [4], 6.3 nM with MDA-MB-436, 0.2 nM in data set [1] and more than 10 µM in the data set with V79.

Turning to `Cc1ccc(Cl)cc1N1CCN(C(=O)c2cc(Cc3n[nH]c(=O)c4ccccc34)cc(F)c2F)CC1`, the IC50 in data set [1] stood at 324 nM.

With `O=C(c1cc(Cc2n[nH]c(=O)c3ccccc23)cc(F)c1F)N1CCN(c2ccc(O)cc2)CC1`, the IC50 in data set [4] was 3970 nM; in the data set with MDA-MB-436, 27.1 nM; in data set [1], 0.6 nM; in the data set on V79, more than 10 µM.

On to `Cc1ccc(C(=O)N2CCN(C(=O)c3cc(Cc4n[nH]c(=O)c5ccccc45)cc(F)c3F)CC2)cc1`, for which, in data set [1], the IC50 was determined as 29.1 nM.

Consider `O=C(c1cc(Cc2n[nH]c(=O)c3ccccc23)cc(F)c1F)N1CCN(c2cccc(C(F)(F)F)c2)CC1`, for which the IC50 is 624 nM in data set [4], 23.4 nM in the data set on MDA-MB-436, 0.8 nM in data set [1] and more than 10 µM in the data set with V79.

For `CCCCN1CCN(C(=O)c2cc(Cc3n[nH]c(=O)c4ccccc34)cc(F)c2F)CC1`, the IC50 in data set [4] is 149 nM; in the data set with MDA-MB-436 it was less than 0.03 nM; in data set [1] it was 2.1 nM; in the data set on V79, 0.771 µM.

As for `O=C(c1cc(Cc2n[nH]c(=O)c3ccccc23)cc(F)c1F)N1CCN(c2ccc(Cl)cc2)CC1`, in data set [1], the IC50 was found to be 103 nM.

`O=C(c1cc(Cc2n[nH]c(=O)c3ccccc23)cc(F)c1F)N1CCN(c2ccc([N+](=O)[O-])cc2)CC1`: the IC50 in data set [4] is 206 nM; in the data set on MDA-MB-436, 9.4 nM; in data set [1], 0.4 nM; with V79 it was more than 10 µM.

Regarding `Cc1ccc(N2CCN(C(=O)c3cc(Cc4n[nH]c(=O)c5ccccc45)cc(F)c3F)CC2)cc1`, the IC50 is 2080 nM in data set [4], 405 nM in the data set with MDA-MB-436, less than 0.1 nM in data set [1] and more than 10 µM in the data set with V79.

On to `O=C(c1cc(Cc2n[nH]c(=O)c3ccccc23)cc(F)c1F)N1CCN(c2ncc(Br)cn2)CC1`, for which the IC50 in data set [1] turned out to be 175 nM.

As to `N#Cc1ccccc1N1CCN(C(=O)c2cc(Cc3n[nH]c(=O)c4ccccc34)cc(F)c2F)CC1`, the IC50 in data set [4] is 8.8 nM; in the data set on MDA-MB-436, less than 0.05 nM; in data set [1], 0.02 nM; with V79 it was 4.34 µM. The solubility at 24 h in data set [5] is less than 0.2 µg/mL.

As to `O=C(c1cc(Cc2n[nH]c(=O)c3ccccc23)cc(F)c1F)N1CCN(c2ccccn2)CC1`, the IC50 was less than 3.2 nM in data set [4], less than 0.03 nM in the data set with MDA-MB-436, 0.1 nM in data set [1] and 0.924 µM in the data set with V79.

Turning to `O=C(c1cc(Cc2n[nH]c(=O)c3ccccc23)cc(F)c1F)N1CCN(C(=O)C2CC2)CC1`, the IC50 in data set [1] amounted to 11.2 nM.

In the case of `O=C(c1cc(Cc2n[nH]c(=O)c3ccccc23)cc(F)c1F)N1CCN(c2ccccc2O)CC1`, the IC50 in data set [4] is 31.7 nM; in the data set with MDA-MB-436 it was 0.3 nM; in data set [1] it was 0.9 nM; with V79, 7.83 µM.

`N#Cc1ccc(N2CCN(C(=O)c3cc(Cc4n[nH]c(=O)c5ccccc45)cc(F)c3F)CC2)cc1` gave an IC50 in data set [1] of 5.4 nM.

On to `O=C(c1cc(Cc2n[nH]c(=O)c3ccccc23)cc(F)c1F)N1CCN(C2CCCC2)CC1`, for which the IC50 was 284 nM in data set [4], 10.6 nM in the data set on MDA-MB-436, 2.6 nM in data set [1] and more than 10 µM in the data set with V79.

As for `O=C(c1cc(Cc2n[nH]c(=O)c3ccccc23)cc(F)c1F)N1CCN(c2ccncc2)CC1`, the IC50 in data set [4] was 3290 nM; in the data set with MDA-MB-436 it was 3.7 nM; in data set [1], 0.9 nM; with V79 it was more than 10 µM.

As for `O=C(c1cc(Cc2n[nH]c(=O)c3ccccc23)cc(F)c1F)N1CCN(c2ccccc2)CC1`, the half-maximal inhibitory concentration (IC50) in data set [4] amounted to 1940 nM; with MDA-MB-436 it was 82.4 nM; in data set [1], 0.5 nM; with V79, 6.03 µM.

With `O=C(c1cc(Cc2n[nH]c(=O)c3ccccc23)cc(F)c1F)N1CCN(C2CCCCCC2)CC1`, the IC50 is 42.6 nM in data set [4], 6 nM in the data set on MDA-MB-436, 0.8 nM in data set [1] and more than 10 µM with V79.

Take `O=C(c1cc(Cc2n[nH]c(=O)c3ccccc23)cc(F)c1F)N1CCN(C(=O)N2CCOCC2)CC1`: the IC50 is 938 nM in data set [4], 25.7 nM in the data set on MDA-MB-436, 2.3 nM in data set [1] and more than 10 µM with V79.

The compound `O=C(c1cc(Cc2n[nH]c(=O)c3ccccc23)cc(F)c1F)N1CCN(C2CCCCC2)CC1` returned an IC50 in data set [1] of 3.5 nM.
